Tested on: male adult Sprague Dawley rats
Assay: Sleep-wake organization in rats, polysomnographic recording (EEG, EOG, EMG, body movement) for 16 hours after acute i.p. administration
Type: in vivo, rat
Settings: rats; for Duration (min) Active wake / Duration (min) Deep sleep / Duration (min) Light sleep / Duration (min) Passive wake / Duration (min) REM sleep / Duration (min) intermediate stage / ISWS/TST (%) / Latency (min) ISWS / Latency (min) REM sleep / Latency (min) dSWS / REMS/TST (%) / Shifts (number) Shift from ISWS to AW / Shifts (number) Shift from ISWS to PW / Shifts (number) Shift from REMS to AW / Shifts (number) Shift from REMS to PW / Shifts (number) Shift from dSWS to AW / Shifts (number) Shift from dSWS to PW / Total sleep time TST / dSWS/TST (%): 16 hours recording period; for change in number of active wakefulness epochs / change in number of deep sleep epochs / change in number of light sleep epochs / change in duration of active wakefulness / change in time spent in deep sleep / change in time spent in light sleep / change in number of REM sleep epochs / change in duration of REM sleep: 10 mg/kg
[1] = highest dose tested, 16 hours recording

## COC(=O)[C@H]1[C@@H](OC(=O)c2ccccc2)C[C@@H]2CC[C@H]1N2C [Cocaine, cocaine]
1 mg/kg i.p.
  Duration (min) Active wake: 331.5 min
  Duration (min) Deep sleep: 162.9 min
  Duration (min) Light sleep: 293.2 min
  Duration (min) Passive wake: 69.8 min
  Duration (min) REM sleep: 84.2 min
  Duration (min) intermediate stage: 6.7 min
  ISWS/TST (%): 51.8 ± 4.5%
  Latency (min) ISWS: 69.9 ± 51.2 min
  Latency (min) REM sleep: 74.3 ± 12.1 min
  Latency (min) dSWS: 79.3 ± 26.7 min
  REMS/TST (%): 15.4 ± 0.9%
  Shifts (number) Shift from ISWS to AW: 184.1 number
  Shifts (number) Shift from ISWS to PW: 128.6 number
  Shifts (number) Shift from REMS to AW: 74.5 number
  Shifts (number) Shift from REMS to PW: 17.0 number
  Shifts (number) Shift from dSWS to AW: 10.1 number
  Shifts (number) Shift from dSWS to PW: 66.6 number
  Total sleep time TST: 547.0 ± 51.5 min
  dSWS/TST (%): 31.2 ± 4.8%
3 mg/kg i.p.
  Duration (min) Active wake: 324.8 min
  Duration (min) Deep sleep: 172.6 min
  Duration (min) Light sleep: 303.2 min
  Duration (min) Passive wake: 66.7 min
  Duration (min) REM sleep: 76.7 min
  Duration (min) intermediate stage: 5.7 min
  ISWS/TST (%): 53.8 ± 6.3%
  Latency (min) ISWS: 41.5 ± 9.2 min
  Latency (min) REM sleep: 112.0 ± 12.2 min
  Latency (min) dSWS: 68.6 ± 7.6 min
  REMS/TST (%): 13.8 ± 1.1%
  Shifts (number) Shift from ISWS to AW: 218.5 number
  Shifts (number) Shift from ISWS to PW: 142.2 number
  Shifts (number) Shift from REMS to AW: 56.0 number
  Shifts (number) Shift from REMS to PW: 10.7 number
  Shifts (number) Shift from dSWS to AW: 10.2 number
  Shifts (number) Shift from dSWS to PW: 64.5 number
  Total sleep time TST: 558.2 ± 21.2 min
  dSWS/TST (%): 31.4 ± 6.1%
10 mg/kg i.p.
  Duration (min) Active wake: 347.3 min
  Duration (min) Deep sleep: 171.9 min
  Duration (min) Light sleep: 294.6 min
  Duration (min) Passive wake: 55.0 min
  Duration (min) REM sleep: 74.7 min
  Duration (min) intermediate stage: 6.3 min
  ISWS/TST (%): 53.8 ± 4.0%
  Latency (min) ISWS: 101.8 ± 6.9 min
  Latency (min) REM sleep: 192.1 ± 18.5 min
  Latency (min) dSWS: 138.8 ± 8.7 min
  REMS/TST (%): 13.8 ± 1.5%
  Shifts (number) Shift from ISWS to AW: 201.2 number
  Shifts (number) Shift from ISWS to PW: 132.6 number
  Shifts (number) Shift from REMS to AW: 52.3 number
  Shifts (number) Shift from REMS to PW: 9.2 number
  Shifts (number) Shift from dSWS to AW: 10.4 number
  Shifts (number) Shift from dSWS to PW: 37.6 number
  Total sleep time TST: 547.6 ± 18.2 min
  dSWS/TST (%): 31.3 ± 4.2%
0.5 h
  change in number of active wakefulness epochs: +111%
  change in number of deep sleep epochs: −100%
  change in number of light sleep epochs: −100%
0.5 h after treatment
  change in duration of active wakefulness: +111%
  change in time spent in deep sleep: 90%
  change in time spent in light sleep: −100%
0.5 hr
  change in number of REM sleep epochs: −100%
0.5 hr after administration
  change in duration of REM sleep: −100%
1 h
  change in number of active wakefulness epochs: +500%
1 h after treatment
  change in duration of active wakefulness: +500%
  change in time spent in deep sleep: −100%
  change in time spent in light sleep: −99%
1 hr
  change in number of REM sleep epochs: −100%
  change in number of deep sleep epochs: −100%
  change in number of light sleep epochs: −99%
1 hr after administration
  change in duration of REM sleep: −100%
1.5 h
  change in number of deep sleep epochs: −100%
  change in number of light sleep epochs: −87%
1.5 hr
  change in number of REM sleep epochs: −100%
  change in number of active wakefulness epochs: +312%
1.5 hr after administration
  change in duration of REM sleep: −100%
1.5 hr after treatment
  change in duration of active wakefulness: +312%
  change in time spent in deep sleep: −99%
  change in time spent in light sleep: −87%
2 h
  change in number of active wakefulness epochs: +119%
2 h after treatment
  change in duration of active wakefulness: +120%
  change in time spent in deep sleep: −70%
  change in time spent in light sleep: −25%
2 hr
  change in number of REM sleep epochs: −87%
  change in number of deep sleep epochs: −38%
  change in number of light sleep epochs: −22%
2 hr after administration
  change in duration of REM sleep: −87%
2.5 hr
  change in number of REM sleep epochs: −47%
  change in number of active wakefulness epochs: +166%
2.5 hr after administration
  change in duration of REM sleep: −47%
2.5 hr after treatment
  change in duration of active wakefulness: +166%
3 hr
  change in number of REM sleep epochs: −78%
  change in number of active wakefulness epochs: +77%
3 hr after administration
  change in duration of REM sleep: −78%
3 hr after treatment
  change in duration of active wakefulness: +77%
[1]
  decrease in total time spent in REM sleep: −18%
  increase in total duration of active wakefulness: +14%
